According to patent publication US20020026059A1 (priority 1995, published 2002):

The molecules below were run on Venturia inaequalis (assay: Venturia test (apple)/protective). Conditions: apple plants, protective spray, active compound concentration of 10 ppm, evaluation 12 days after inoculation.
Format: in vivo
Description: Venturia test (apple)/protective
Solvent: 4.7 parts by weight of acetone Emulsifier: 0.3 parts by weight of alkylaryl polyglycol ether
(§1) To produce a suitable preparation of active compound, 1 part by weight of active compound is mixed with the stated amounts of solvent and emulsifier, and the concentrate is diluted with water to the desired concentration.
To test for protective activity, young plants are sprayed with the preparation of active compound to run-off point. After the spray coating has dried on, the plants are inoculated with an aqueous suspension of conidia of the causative organism of apple scab (Venturia inaequalis) and then remain in an incubation cupboard at 20° C. and 100% relative atmospheric humidity for 1 day.
The plants are then placed in a greenhouse at 20° C. and a relative atmospheric humidity of about 70%.
Evaluation is carried out 12 days after the inoculation. 0% means an efficacy corresponding to that of the control, 100% means that no infestation is observed.

Going from `CN(C)OS(=O)n1c(C#N)nc2cc3c(cc21)OC(F)(F)O3` (stereo not drawn) [drawing 350] to `CN(C)OS(=O)n1c(C#N)nc2cc3c(cc21)OC(F)(F)C(F)(F)O3` (stereo not drawn), the “Efficacy in %, based on the untreated control” value (shortened to “Efficacy in %, based”) rises from 0% to 43%.

Going from `CN(C)S(=O)(=O)n1c(C#N)nc2cc3c(cc21)OC(F)(F)C(F)(F)O3` [comparison substance (A), 2-Cyano-1-dimethylaminosulphonyl-6,6,7,7-tetrafluoro-[1,4]dioxino[2,3-f]benzimidazole] to `Cc1noc(C)c1S(=O)(=O)n1c(C#N)nc2cc3c(cc21)OC(F)(F)C(F)(F)O3` [drawing 352], the “Efficacy in %, based” value rises from 43% to 58%.

Going from `Cc1noc(C)c1S(=O)(=O)n1c(C#N)nc2cc3c(cc21)OC(F)(F)O3` [drawing 351] to `N#Cc1nc2cc3c(cc2n1S(=O)(=O)c1cccs1)OC(F)(F)C(F)(F)O3` [drawing 353], the “Efficacy in %, based” value rises from 81% to 87%.

Each molecule was assayed on Plasmopara viticola (assay: Plasmopara test (vines)/protective). Conditions: Plasmopara viticola, 144 h, protective spray, active compound concentration of 100 ppm, evaluation 6 days after inoculation, read-out: Efficacy in %, based on the untreated control.
Format: in vivo
Description: Plasmopara test (vines)/protective
Solvent: 4.7 parts by weight of acetone Emulsifier: 0.3 parts by weight of alkyl-aryl polyglycol ether
as §1
To test for protective activity, young plants are sprayed with the preparation of active compound to run-off point. After the spray coating has dried on, the plants are inoculated with an aqueous suspension of spores of Plasmopara viticola and then remain in a humidity chamber at 20-22° C. and 100% relative atmospheric humidity for 1 day. The plants are subsequently placed in a greenhouse at 21° C. and 90% atmospheric humidity for […]. The plants are then moistened and placed in a humidity chamber for 1 day.
Evaluation is carried out 6 days after the inoculation. 0% means an efficacy corresponding to that of the control, whereas an efficacy of 100% means that no infestation is observed.

`Cc1noc(C)c1OS(=O)N1C(C#N)=NC2C=C3OC(F)(F)OC3=CC21` (stereo not drawn) and `Cc1noc(C)c1OS(=O)n1c(C#N)nc2cc3c(cc21)OC(F)(F)C(F)(F)O3` (stereo not drawn) [drawing 367] are the same in pest or weed control at 100 ppm: 100% for the first, 100% for the second.

Compared with `N#Cc1nc2cc3c(cc2n1S(=O)Oc1cccs1)OC(F)(F)C(F)(F)O3` (stereo not drawn), `COC(=O)c1sccc1OS(=O)n1c(C#N)nc2cc3c(cc21)OC(F)(F)C(F)(F)O3` (stereo not drawn) is higher in pest or weed control at 100 ppm: 80% for the first, 100% for the second.

Going from `Cc1nn(C)c(Cl)c1S(=O)(=O)n1c(C#N)nc2cc3c(cc21)OC(F)(F)C(F)(F)O3` [drawing 371] to `Cc1oncc1OS(=O)n1c(C#N)nc2cc3c(cc21)OC(F)(F)C(F)(F)O3` (stereo not drawn) [drawing 370], the pest or weed control at 100 ppm rises from 74% to 100%.

Going from `Cc1noc(C)c1S(=O)(=O)n1c(C#N)nc2c(Br)cc(C(F)(F)F)cc21` [drawing 373] to `Cc1oncc1OS(=O)n1c(C#N)nc2cc3c(cc21)OC(F)(F)O3` (stereo not drawn) [drawing 372], the pest or weed control at 100 ppm rises from 95% to 100%.

Same assay, conditions: protective spray, active compound concentration of 100 ppm, evaluation 6 days after inoculation

For `Cc1noc(C)c1OS(=O)n1c(C#N)nc2cc3c(cc21)OC(F)(F)C(F)(F)O3` (stereo not drawn) [drawing 374], the “Efficacy in %, based” value was 100%.

Each molecule was assayed on Phytophthora infestans (assay: whole plant or invertebrate). Conditions: in Solanum lycopersicum, 72 h, read-out: Efficacy in %, based on the untreated control.
Format: in vivo

Compared with `Cc1oncc1OS(=O)n1c(C#N)nc2cc3c(cc21)OC(F)(F)O3` (stereo not drawn) [drawing 362], `Cc1oncc1OS(=O)n1c(C#N)nc2cc3c(cc21)OC(F)(F)C(F)(F)O3` (stereo not drawn) [drawing 358] is lower in pest or weed control at 100 ppm: 96% for the first, 64% for the second.

Going from `N#Cc1nc2cc3c(cc2n1S(=O)(=O)c1cccs1)OC(F)(F)C(F)(F)O3` [drawing 356] to `COC(=O)c1sccc1S(=O)(=O)n1c(C#N)nc2cc3c(cc21)OC(F)(F)C(F)(F)O3`, the pest or weed control at 100 ppm falls from 94% to 82%.

`Cc1nn(C)c(Cl)c1S(=O)(=O)n1c(C#N)nc2cc3c(cc21)OC(F)(F)C(F)(F)O3` [drawing 359] and `Cc1nn(C)c(Cl)c1S(=O)(=O)n1c(C#N)nc2cc3c(cc21)OC(F)(F)O3` are the same in pest or weed control at 100 ppm: 94% for the first, 94% for the second.

Going from `Cc1noc(C)c1S(=O)(=O)n1c(C#N)nc2c(Br)cc(C(F)(F)F)cc21` [drawing 363] to `Cc1noc(C)c1S(=O)(=O)n1c(C#N)nc2cc3c(cc21)OC(F)(F)O3` [drawing 354], the pest or weed control at 100 ppm rises from 74% to 100%.

`Cc1noc(C)c1OS(=O)n1c(C#N)nc2cc3c(cc21)OC(F)(F)C(F)(F)O3` (stereo not drawn) [drawing 365] and `Cc1noc(C)c1S(=O)(=O)n1c(C#N)nc2cc3c(cc21)OC(F)(F)C(F)(F)O3` [drawing 355] are the same in pest or weed control at 100 ppm: 97% for the first, 97% for the second.

Going from `COC(=O)c1csc(OS(=O)n2c(C#N)nc3cc4c(cc32)OC(F)(F)O4)c1C` (stereo not drawn) to `N#Cc1nc2cc3c(cc2n1S(=O)Oc1cccs1)OC(F)(F)O3` (stereo not drawn), the pest or weed control at 100 ppm falls from 97% to 94%.
